Measurements reported in patent publication US9670200B2, “Quaternary ammonium salt prodrugs” (Alkermes Pharma Ireland Limited, priority 2010, dated 2017).
Where two headings read alike, the source gives them in different places.

Columns and labels:
[1] = Pharmacokinetic evaluation of asenapine and asenapine prodrugs in rats; assay type: in vivo, Sprague-Dawley rats; settings: rat, 10 mg/rat IM
Description: Animals: 18 Male Sprague-Dawley rats (Charles River Laboratories, Wilmington, Mass.) were used in the study. Three groups of 6 rats were used and are referred to in this study as Groups A, B and C. Rats were approximately 350-375 g at time of arrival. Rats are housed 2 per cage with ad libitum chow and water. Environmental conditions in the housing room: 64-67° F., 30% to 70% relative humidity, and 12:12-h light: dark cycle. All experiments were approved by the institutional animal care and use committee.
Test Compounds: The following formulations of Asenapine parent drug and prodrug compounds of the invention were used in the study.
Pharmacokinetics study: Rats were dosed IM by means of a 23 gauge, 1 in. needle with 1 cc syringe 0.3 mL suspension was withdrawn from the vial containing the test compound. The rat was injected in the muscles of the hind limb after anesthesia with isoflurane. Blood samples were collected via a lateral tail vein after brief anesthesia with Isoflurane. A 271/2 G needle and 1 cc syringe without an anticoagulant was used for the blood collection. Approximately 350 μL of whole blood was collected at each sampling time point of 6 hours, 24 hours and 2, 5, 7, 9, 12, 14, 21, 28, 35 days after administration. Once collected, whole blood was immediately transferred to tubes containing K2 EDTA, inverted 10-15 times and immediately placed on ice. The tubes were centrifuged for 2 minutes at >14,000 g′ s (11500 RPMs using Eppendorf Centrifuge 5417C, F45-30-11 rotor) at room temperature to separate plasma. Plasma samples were transferred to labeled plain tubes (MICROTAINER®; MFG# BD5962) and stored frozen at <−70° C.
Drug concentrations in plasma samples were analyzed by liquid chromatography-mass spectroscopy using appropriate parameters for each compound. Half-life, volume of distribution, clearance, maximal concentration, and AUC were calculated by using WinNonlin version 5.2 software (Pharsight, St. Louis, Mo.).

[2] = Source text: At pH 4 and 5, 0.1 M citrate buffers were used, while for pH 6, 7 and 8a set of 0.1 M phosphate buffers were used. Each buffer also contained 0.2 M NaCl. No cosolvents or other potentially solubilizing components were included. Buffer preparations were subdivided in order to individually test the solubility of only one material in a given buffer sample.
[3] = Solution stability of asenapine prodrugs as a function of pH; assay type: physicochemical; settings: 0.01M buffers pH 2.11-9.01 with acetonitrile, 25° C., HPLC at 1, 4, 10, 24 hours; compared with asenapine octanoate (FIGS. 1 and 2)
Description: The asenapine derived prodrugs were prepared at approximately 300 ug/mL in buffers with acetonitrile (see table of buffers below). The initial ratio of prodrug/parent was measured using a freshly prepared solution in unbuffered water. Acetonitrile was titrated into all samples as needed to ensure the complete dissolution of the compounds. The amount of acetonitrile varied depending on the solubility of each compound (see Note 1). 1.5 mL of each stability sample was transferred into a HPLC vial and the vials were maintained at 25° C. in the temperature controlled sample compartment of the HPLC. Each sample was assayed by HPLC after 1, 4, 10, and 24 hours for prodrug and asenapine content (see Note 2).
The fraction of prodrug remaining at each time point was calculated as Fraction Prodrug=(HPLC Area of Prodrug)/(HPLC area of prodrug+asenapine)(see Note 3). The loss of prodrug was then fit to the equation for first order decay: Fraction Prodrug=(Initial Fraction prodrug)*e^−kt where t=time (in hours) and k is the rate constant for decay. Finally, the half-lives were calculated as: t1/2=0.693/k
Note 1: The acetonitrile concentration is not expected to have a large impact on the degradation rate since the rate follows first order decay with respect to compound (ie, the rate constant is independent of the concentration). […]

CCC(C)(C)C(=O)OC[N+]1(C)CC2c3ccccc3Oc3ccc(Cl)cc3C2C1.[I-] (stereo not drawn) [ASN-83, 5-chloro-2-(((2,2-dimethylbutanoyl)oxy)methyl)-2-methyl-2,3,3a,12b-tetrahydro-1H-dibenzo[2,3:6,7]oxepino[4,5-c]pyrrol-2-ium iodide]
Cmax of the Asenapine released ([1]; plasma, compared with parent Asenapine formulation and Asenapine palmitate prodrug (FIG. 3)): lower

CCC(C)(C)C(=O)OC[N+]1(C)CC2c3ccccc3Oc3ccc(Cl)cc3C2C1.[I-] (stereo not drawn) [Asenapine dimethyl butyrate prodrug, asenapine (α,α)-dimethyl butyrate iodide]
decrease in plasma concentration over all the time points sampled ([1]; 6 hours to 35 days, compared with Asenapine or Asenapine palmitate prodrug): more gradual decrease
duration of asenapine pharmacokinetics in the animals ([1]; compared with Asenapine or Asenapine palmitate prodrug): longer duration

CCCCCCCCCCCCC(C)(C)C(=O)OC[N+]1(C)CCN(C2=Nc3ccccc3Nc3sc(C)cc32)CC1.[I-] [Compound 18, 1-(((2,2-dimethyltetradecanoyl)oxy)methyl)-1-methyl-4-(2-methyl-10H-benzo[b]thieno[2,3-e][1,4]diazepin-4-yl)piperazin-1-ium iodide]
variation in solubility across the pH range studied [2]: less than 2 fold

CC(C)(C)C(=O)OC[N+]1(C)CC2c3ccccc3Oc3ccc(Cl)cc3C2C1.[Cl-] (stereo not drawn) [asenapine pivalate, asenapine pivalate prodrug]
Solution stability as a function of pH [3]: more stable

Cc1cc2c(s1)Nc1ccccc1N=C2N1CCN(C)CC1.O.O=C(O)c1cc2ccccc2c(Cc2c(O)c(C(=O)O)cc3ccccc23)c1O [olanzapine pamoate salt, olanzapine pamoate, reference compound]
variation in solubility across the pH range studied ([2]; room temperature, 0.1 M citrate (pH 4, 5) or phosphate (pH 6, 7, 8) buffers with 0.2 M NaCl, pH range 4-9 (FIG. 4)): > 10 fold
